Source: patent publication US12195450B2, “Small molecule neutral sphingomyelinase 2 (nSMase2) inhibitors” (The Johns Hopkins University, priority 2019, dated 2025)
Structures can show the parent of a compound that is named as a salt.

Molecular target: T1, nSMase2 (Homo sapiens, UniProt Q9NY59)
T1 sequence (Q9NY59 1-655): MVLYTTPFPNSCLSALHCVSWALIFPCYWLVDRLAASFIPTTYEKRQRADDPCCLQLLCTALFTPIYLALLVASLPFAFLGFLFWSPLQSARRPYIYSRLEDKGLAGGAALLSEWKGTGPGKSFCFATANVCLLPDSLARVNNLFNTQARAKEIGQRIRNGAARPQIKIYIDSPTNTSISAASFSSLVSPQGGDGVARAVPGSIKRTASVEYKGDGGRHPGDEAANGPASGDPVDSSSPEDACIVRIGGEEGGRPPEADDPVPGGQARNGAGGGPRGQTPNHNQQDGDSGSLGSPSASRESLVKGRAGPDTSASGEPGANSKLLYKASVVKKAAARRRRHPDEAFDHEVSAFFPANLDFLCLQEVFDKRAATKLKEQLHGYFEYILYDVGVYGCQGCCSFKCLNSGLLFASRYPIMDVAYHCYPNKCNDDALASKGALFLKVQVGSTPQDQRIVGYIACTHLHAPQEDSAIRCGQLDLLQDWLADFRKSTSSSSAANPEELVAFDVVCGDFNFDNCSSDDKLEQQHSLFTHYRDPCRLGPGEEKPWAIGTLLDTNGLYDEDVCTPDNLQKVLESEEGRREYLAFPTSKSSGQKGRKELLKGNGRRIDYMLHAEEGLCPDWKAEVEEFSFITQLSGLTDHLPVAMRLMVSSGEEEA
Test: Inhibition of nSMase2 (IC50)
Format: biochemical

[1] = Table 1, Representative Inhibitors of nSMase2 of Formula (I)

IC50 [1] [µM]	IC50 (Table 2, Inhibition of nSMase) [µM]	SMILES
0.4	0.4	COc1cc(-c2ncc[nH]2)cc(OC)c1O [Compound 18, 4-(1H-imidazol-2-yl)-2,6-dimethoxyphenol]
0.5	0.5	COc1cc(-c2nc(C)c(C)[nH]2)cc(OC)c1O [Compound 19, 4-(4,5-dimethyl-1H-imidazol-2-yl)-2,6-dimethoxyphenol hydrochloride]
0.4	0.4	COc1cc(-c2nc3c([nH]2)CCCC3)cc(OC)c1O [Compound 20, 2,6-dimethoxy-4-(4,5,6,7-tetrahydro-1H-benzo[d]imidazol-2-yl)phenol]
0.02	0.03	CC(C)Oc1cc(-c2nc(-c3ccccc3)c(-c3cccs3)[nH]2)cc(OC(C)C)c1O [Compound 22, 2,6-diisopropoxy-4-(4-phenyl-5-(thiophen-2-yl)-1H-imidazol-2-yl)phenol]
	0.07	COc1cc(-c2ncc(-c3ccccc3)[nH]2)cc(OC)c1O [Compound 23, 2,6-dimethoxy-4-(5-phenyl-1H-imidazol-2-yl)phenol hydrochloride]
0.2	0.2	COc1cc(-c2ncc(C)[nH]2)cc(OC)c1O [Compound 24, 2,6-dimethoxy-4-(5-methyl-1H-imidazol-2-yl)phenol]
	0.02	COc1cc(-c2nc(-c3ccccc3)c(-c3ccccc3)[nH]2)cc(OC)c1O [Compound 25, 4-(4,5-diphenyl-1H-imidazol-2-yl)-2,6-dimethoxyphenol]
0.2	0.2	COc1cc(-c2ncc(-c3ccc(Br)cc3)[nH]2)cc(OC)c1O [Compound 26, 4-(5-(4-bromophenyl)-1H-imidazol-2-yl)-2,6-dimethoxyphenol]
0.02		COc1cc(-c2nc(-c3cccs3)c(-c3cccs3)[nH]2)cc(OC)c1O [Compound 27, 4-(4,5-di(thiophen-2-yl)-1H-imidazol-2-yl)-2,6-dimethoxyphenol]
0.02		COc1ccc(-c2nc(-c3cc(OC)c(O)c(OC)c3)[nH]c2-c2ccc(OC)cc2)cc1 [Compound 28, 4-(4,5-bis(4-methoxyphenyl)-1H-imidazol-2-yl)-2,6-dimethoxyphenol]
0.1	0.1	COc1cc(-c2nc(-c3ccc(C)cc3)c[nH]2)cc(OC)c1O [Compound 29, 2,6-dimethoxy-4-(4-p-tolyl-1H-imidazol-2-yl)phenol]
0.1	0.1	Oc1c(OC2CCCC2)cc(-c2nc(-c3ccccc3)c(-c3cccs3)[nH]2)cc1OC1CCCC1 [Compound 30, 2,6-bis(cyclopentyloxy)-4-(5-phenyl-4-(thiophen-2-yl)-1H-imidazol-2-yl)phenol]
0.04	0.04	CCCOc1cc(-c2nc(-c3cccs3)c(-c3ccccc3)[nH]2)cc(OCCC)c1O [Compound 31, 4-(5-phenyl-4-(thiophen-2-yl)-1H-imidazol-2-yl)-2,6-dipropoxyphenol]
0.06		CCCCc1[nH]c(-c2cc(OC)c(O)c(OC)c2)nc1C [Compound 32, 4-(5-butyl-4-methyl-1H-imidazol-2-yl)-2,6-dimethoxyphenol]
0.08	0.08	CCc1nc(-c2cc(OC)c(O)c(OC)c2)[nH]c1CC [Compound 33, 4-(4,5-diethyl-1H-imidazol-2-yl)-2,6-dimethoxyphenol]
0.03	0.03	COc1cc(-c2nc(-c3ccco3)c(-c3ccco3)[nH]2)cc(OC)c1O [Compound 34, 4-(4,5-di(furan-2-yl)-1H-imidazol-2-yl)-2,6-dimethoxyphenol hydrochloride]

IC50 [1] [µM]	IC50 (Table 2, Inhibition of nSMase) [µM]	SMILES
0.02		COc1cc(-c2nc(C)c(-c3ccccc3)[nH]2)cc(OC)c1O [Compound 35, 2,6-dimethoxy-4-(4-methyl-5-phenyl-1H-imidazol-2-yl)phenol]
0.06	0.06	Oc1c(OCC(F)(F)F)cc(-c2nc(-c3ccccc3)c(-c3cccs3)[nH]2)cc1OCC(F)(F)F [Compound 36, 4-(4-phenyl-5-(thiophen-2-yl)-1H-imidazol-2-yl)-2,6-bis(2,2,2-trifluoroethoxy)phenol]
0.7	0.7	CCc1nc(-c2cc(OCC(F)(F)F)c(O)c(OCC(F)(F)F)c2)[nH]c1CC [Compound 37, 4-(4,5-diethyl-1H-imidazol-2-yl)-2,6-bis(2,2,2-trifluoroethoxy)phenol]
0.06	0.06	COc1cc(-c2nc(-c3ccc(C)cc3)c(-c3ccc(C)cc3)[nH]2)cc(OC)c1O [Compound 38, 4-(4,5-di-p-tolyl-1H-imidazol-2-yl)-2,6-dimethoxyphenol]
0.2	0.2	COc1cc(-c2ncc(C34CC5CC(CC(C5)C3)C4)[nH]2)cc(OC)c1O [Compound 39, 2,6-dimethoxy-4-(5-adamantyl-1H-imidazol-2-yl)phenol]
0.5	0.5	CCc1nc(-c2cc(OC)c(O)c(OC)c2)[nH]c1-c1ccccn1 [Compound 40, 4-(4-ethyl-5-(pyridin-2-yl)-1H-imidazol-2-yl)-2,6-dimethoxyphenol hydrochloride]
0.01	0.01	COc1cc(-c2nc(-c3cccs3)c(C)[nH]2)cc(OC)c1O [Compound 41, 2,6-dimethoxy-4-(4-methyl-5-(thiophen-2-yl)-1H-imidazol-2-yl)phenol hydrochloride]
0.6	0.6	COc1cc(-c2nc3ccccc3[nH]2)cc(OC)c1O [Compound 42, 4-(1H-benzo[d]imidazol-2-yl)-2,6-dimethoxyphenol]
4	4	COc1cc(-c2nc3cccnc3[nH]2)cc(OC)c1O [Compound 43, 4-(3H-imidazo[4,5-b]pyridin-2-yl)-2,6-dimethoxyphenol]
0.8	0.8	COc1cc(-c2nc3c(C)ccc(C)c3[nH]2)cc(OC)c1O [Compound 44, 4-(4,7-dimethyl-1H-benzo[d]imidazol-2-yl)-2,6-dimethoxyphenol]
0.2	0.2	CCCCc1nc(-c2cc(OC)c(O)c(OC)c2)[nH]c1CCCC [Compound 46, 4-(4,5-dibutyl-1H-imidazol-2-yl)-2,6-dimethoxyphenol]
0.06	0.06	COc1cc(-c2nc(C(C)C)c(C(C)C)[nH]2)cc(OC)c1O [Compound 47, 4-(4,5-diisopropyl-1H-imidazol-2-yl)-2,6-dimethoxyphenol]
0.06	0.06	COc1cc(-c2nc(-c3ccccc3)c(C(C)C)[nH]2)cc(OC)c1O [Compound 48, 4-(5-isopropyl-4-phenyl-1H-imidazol-2-yl)-2,6-dimethoxyphenol]
60		COc1cc(-c2nc(-c3ccccc3)c(-c3cccs3)n2C)cc(OC)c1O [Compound 3455]
70		COc1cc(C2=NC3CCCCC3N2)cc(OC)c1O (centres unmarked) [Compound 3546]

SMILES	IC50 [1] [µM]	IC50 (Table 2, Inhibition of nSMase) [µM]
CC(C)(C)Oc1cc(-c2nc(-c3ccccc3)c(-c3cccs3)[nH]2)cc(OC(C)(C)C)c1O [Compound 45, 2,6-di-tert-butoxy-4-(4-phenyl-5-(thiophen-2-yl)-1H-imidazol-2-yl)phenol]	0.4	0.4
